Reference: PubChem BioAssay (NCI)
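Cultured in 96-well plates, cells were exposed to test compound for 48 hours across five concentrations. The concentration for 50% growth inhibition is given as GI50. The concentration for full growth arrest is given as TGI.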

Tests used:
Experiment in all cases: inhibition of tumour cell growth, NCI panel, 48 h
K-562 leukemia = system: K-562 leukemia
COLO 205 colon = system: COLO 205 colon
SNB-19 CNS = system: SNB-19 CNS
ACHN renal = system: ACHN renal
BT-549 breast = system: BT-549 breast
MDA-MB-231 breast = system: MDA-MB-231 breast
SW-620 colon = system: SW-620 colon
SNB-75 CNS = system: SNB-75 CNS
SN12C renal = system: SN12C renal
HOP-92 NSCLC = system: HOP-92 NSCLC
OVCAR-3 ovarian = system: OVCAR-3 ovarian
TK-10 renal = system: TK-10 renal
NCI-H460 lung = system: NCI-H460 lung
A549 NSCLC = system: A549 NSCLC
U251 CNS = system: U251 CNS
HOP-62 NSCLC = system: HOP-62 NSCLC
DU-145 prostate = system: DU-145 prostate
UO-31 renal = system: UO-31 renal
RXF 393 renal = system: RXF 393 renal
RPMI-8226 leukemia = system: RPMI-8226 leukemia
T-47D breast = system: T-47D breast
NCI-H23 lung = system: NCI-H23 lung
M14 melanoma = system: M14 melanoma
MDA-MB-435 = system: MDA-MB-435
NCI-H226 lung = system: NCI-H226 lung
HT29 colon = system: HT29 colon
PC-3 prostate = system: PC-3 prostate
IGROV1 ovarian = system: IGROV1 ovarian
MOLT-4 leukemia = system: MOLT-4 leukemia
HCT-116 colon = system: HCT-116 colon
HS 578T breast = system: HS 578T breast
MCF7 breast = system: MCF7 breast
A498 renal = system: A498 renal
LOX IMVI melanoma = system: LOX IMVI melanoma
SF-268 CNS = system: SF-268 CNS
EKVX NSCLC = system: EKVX NSCLC
SF-539 CNS = system: SF-539 CNS
NCI-H522 lung = system: NCI-H522 lung
SR leukemia = system: SR leukemia
HCC-2998 colon = system: HCC-2998 colon
UACC-257 melanoma = system: UACC-257 melanoma
UACC-62 melanoma = system: UACC-62 melanoma
CCRF-CEM leukemia = system: CCRF-CEM leukemia
SK-MEL-28 melanoma = system: SK-MEL-28 melanoma
786-0 renal = system: 786-0 renal
SK-OV-3 ovarian = system: SK-OV-3 ovarian
HCT-15 colon = system: HCT-15 colon
OVCAR-5 ovarian = system: OVCAR-5 ovarian
KM12 colon = system: KM12 colon
SK-MEL-5 melanoma = system: SK-MEL-5 melanoma
SF-295 CNS = system: SF-295 CNS
NCI/ADR-RES ovarian = system: NCI/ADR-RES ovarian
OVCAR-8 ovarian = system: OVCAR-8 ovarian
CAKI-1 renal = system: CAKI-1 renal
OVCAR-4 ovarian = system: OVCAR-4 ovarian
SK-MEL-2 melanoma = system: SK-MEL-2 melanoma

N#Cc1c(N/N=C/c2c(Cl)cccc2Cl)nc(N)nc1N1CCOCC1
GI50 (K-562 leukemia): 2.34 µM
TGI (K-562 leukemia): 11.3 µM
GI50 (COLO 205 colon): 14.9 µM
TGI (COLO 205 colon): > 100 µM
GI50 (SNB-19 CNS): 34.5 µM
TGI (SNB-19 CNS): > 100 µM
GI50 (ACHN renal): 5.48 µM
TGI (ACHN renal): > 100 µM
GI50 (BT-549 breast): 18 µM
TGI (BT-549 breast): > 100 µM
GI50 (MDA-MB-231 breast): 11.7 µM
TGI (MDA-MB-231 breast): 56.1 µM
GI50 (SW-620 colon): 6.11 µM
TGI (SW-620 colon): > 100 µM
GI50 (SNB-75 CNS): 35.5 µM
TGI (SNB-75 CNS): > 100 µM
GI50 (SN12C renal): 16.8 µM
TGI (SN12C renal): 85.7 µM
GI50 (HOP-92 NSCLC): 12.4 µM
TGI (HOP-92 NSCLC): > 100 µM
GI50 (OVCAR-3 ovarian): 3.6 µM
TGI (OVCAR-3 ovarian): > 100 µM
GI50 (TK-10 renal): 20.8 µM
TGI (TK-10 renal): 92 µM
GI50 (NCI-H460 lung): 5.32 µM
TGI (NCI-H460 lung): > 100 µM
GI50 (A549 NSCLC): 19.1 µM
TGI (A549 NSCLC): > 100 µM
GI50 (U251 CNS): 15.6 µM
TGI (U251 CNS): > 100 µM
GI50 (HOP-62 NSCLC): 13.9 µM
TGI (HOP-62 NSCLC): > 100 µM
GI50 (DU-145 prostate): 16 µM
TGI (DU-145 prostate): > 100 µM
GI50 (UO-31 renal): 14.5 µM
TGI (UO-31 renal): 86.4 µM
GI50 (RXF 393 renal): 16.6 µM
TGI (RXF 393 renal): 94.2 µM
GI50 (RPMI-8226 leukemia): 3.86 µM
TGI (RPMI-8226 leukemia): 26.2 µM
GI50 (T-47D breast): 48 µM
TGI (T-47D breast): > 100 µM
GI50 (NCI-H23 lung): 44.5 µM
TGI (NCI-H23 lung): > 100 µM
GI50 (M14 melanoma): 6.79 µM
TGI (M14 melanoma): 38.7 µM
GI50 (MDA-MB-435): 3.26 µM
TGI (MDA-MB-435): 36 µM
GI50 (NCI-H226 lung): 24.5 µM
TGI (NCI-H226 lung): > 100 µM
GI50 (HT29 colon): 19.4 µM
TGI (HT29 colon): > 100 µM
GI50 (PC-3 prostate): 3.91 µM
TGI (PC-3 prostate): 95.8 µM
GI50 (IGROV1 ovarian): 3.95 µM
TGI (IGROV1 ovarian): 34.6 µM
GI50 (MOLT-4 leukemia): 4.08 µM
TGI (MOLT-4 leukemia): 40.6 µM
GI50 (HCT-116 colon): 4.72 µM
TGI (HCT-116 colon): 31.3 µM
GI50 (HS 578T breast): 13.3 µM
TGI (HS 578T breast): 82.1 µM
GI50 (MCF7 breast): 3.18 µM
TGI (MCF7 breast): > 100 µM
GI50 (A498 renal): 2.67 µM
TGI (A498 renal): 15.5 µM
GI50 (LOX IMVI melanoma): 8.97 µM
TGI (LOX IMVI melanoma): > 100 µM
GI50 (SF-268 CNS): 16.5 µM
TGI (SF-268 CNS): > 100 µM
GI50 (EKVX NSCLC): 54.1 µM
TGI (EKVX NSCLC): > 100 µM
GI50 (SF-539 CNS): 7.24 µM
TGI (SF-539 CNS): 30.4 µM
GI50 (NCI-H522 lung): 4.35 µM
TGI (NCI-H522 lung): 27.3 µM
GI50 (SR leukemia): 1.1 µM
TGI (SR leukemia): 3.18 µM
GI50 (HCC-2998 colon): 3.96 µM
TGI (HCC-2998 colon): 12.8 µM
GI50 (UACC-257 melanoma): 6.77 µM
TGI (UACC-257 melanoma): > 100 µM
GI50 (UACC-62 melanoma): 3.7 µM
TGI (UACC-62 melanoma): 31.4 µM
GI50 (CCRF-CEM leukemia): 6.27 µM
TGI (CCRF-CEM leukemia): > 100 µM
GI50 (SK-MEL-28 melanoma): 82.1 µM
TGI (SK-MEL-28 melanoma): > 100 µM
GI50 (786-0 renal): 5.82 µM
TGI (786-0 renal): > 100 µM
GI50 (SK-OV-3 ovarian): 20.2 µM
TGI (SK-OV-3 ovarian): > 100 µM
GI50 (HCT-15 colon): 4.52 µM
TGI (HCT-15 colon): 57.4 µM
GI50 (OVCAR-5 ovarian): 43.4 µM
TGI (OVCAR-5 ovarian): > 100 µM
GI50 (KM12 colon): 4.06 µM
TGI (KM12 colon): 71.7 µM
GI50 (SK-MEL-5 melanoma): 3.71 µM
TGI (SK-MEL-5 melanoma): 24 µM
GI50 (SF-295 CNS): 4.69 µM
TGI (SF-295 CNS): > 100 µM
GI50 (NCI/ADR-RES ovarian): 9.98 µM
TGI (NCI/ADR-RES ovarian): 64.6 µM
GI50 (OVCAR-8 ovarian): 60.6 µM
TGI (OVCAR-8 ovarian): > 100 µM
GI50 (CAKI-1 renal): 12.1 µM
TGI (CAKI-1 renal): > 100 µM
GI50 (OVCAR-4 ovarian): > 100 µM
TGI (OVCAR-4 ovarian): > 100 µM
GI50 (SK-MEL-2 melanoma): 8.3 µM
TGI (SK-MEL-2 melanoma): 81.8 µM
